Earlier results on one compound are cited in patent publication US20110123612A1, “PHARMACEUTICAL PREPARATION CONTAINING NON-DIHYDROPYRIDINE CALCIUM CHANNEL BLOCKER AND ANGIOTENSIN-2 RECEPTOR BLOCKER” (priority 2008, published 2011).

Where only a bound is given, the exact number is not on record here.

The conditions of data set [1]: active losartan molecule released into blood.
For data set [2] the following is noted: active form of losartan.

For the compound `CCCCc1nc(Cl)c(CO)n1Cc1ccc(-c2ccccc2-c2nn[nH]n2)cc1` [losartan], the “time to peak blood concentration” value in data set [1] is not above 1 h. In addition, the “anti-hypertensive effects of the active form” value in data set [2] is reported as not below 10 fold.
